Measured values as given in paper PMC12867150, “A fungi-derived cyclic peptide enhances Th9-mediated antitumor immunity by targeting ZAP70 and SREBP1” (The Journal of Clinical Investigation, 2025).
Several values for one entry are separate records, joined by “and”; a condition that tells them apart may be missing. Equal entries are not always repeated.

Test system: transferred CD45.1+ OT-II Th9 cells
Test: Flow cytometry of transferred CD45.1+ OT-II Th9 cells in spleen, LN, tumor (Figure 2B-C, S1C-E)
Assay type: in vivo, mouse
Details: for Frequencies of transferred CD45.1⁺ OT-II Th9 cells among CD45⁺ cells in LN: Supplemental Figure 1D left; for number of transferred CD45.1⁺ OT-II Th9 cells among CD45⁺ cells in LN: Supplemental Figure 1D right; for CD45.1+ gate number: representative flow plot
Experimental: C57BL/6 mice were subcutaneously injected with 5 × 10^5 B16-OVA melanoma cells. Five days after tumor implantation, mice received an intravenous infusion of 2 × 10^6 in vitro–differentiated Th9 cells (cultured for 5 days), which were derived from OT-II CD45.1 donor mice, accompanied by 4 × 10^5 OVA peptide–pulsed DCs via the tail vein. To enhance T cell engraftment and facilitate lymphodepletion, a single intraperitoneal injection of cyclophosphamide (200 mg/kg, Sigma, catalog C0768) was administered 1 day prior to T cell transfer. Mice were euthanized at designated time points for the collection and analysis of spleens, tumor-draining lymph nodes, and tumor tissues.
Details regarding staining panels (human and mouse), reagents (including clones and catalog numbers), acquisition settings, compensation/controls, and analysis procedures are provided in Supplemental Methods.
BioLegend, Cat. No. 422301 or Mouse TruStain FcX™, BioLegend, Cat. No. 101319) for 10 minutes at 4°C. For surface marker detection, cells were stained with fluorochrome-conjugated monoclonal antibodies in 96-well V-bottom plates and incubated on ice for 30 minutes. After staining, cells were washed twice and resuspended in FACS buffer for analysis.
Prior to intracellular cytokine staining, cells were restimulated for 4 hours with PMA (Absin, Cat. No. abs9107), ionomycin (Sigma-Aldrich, Cat. No. I0634), and brefeldin A (MedChemExpress, Cat. No. HY-16592). For intracellular cytokine staining, cells were first surface-stained as described above, then fixed and permeabilized using the BD Cytofix/Cytoperm™ kit (BD Biosciences, Cat. No. 554714) according to the manufacturer ’s protocol. Intracellular proteins were stained with directly conjugated antibodies targeting IL-9, IL-17a, IL-4, IFN-γ, TNF-α, FOXP3, p-ZAP70, Perforin, and […]
Antibodies used for mouse samples included those against IL-9 (PE, clone RM9A4, Biolegend, Cat. No. 514104), IFN-γ (PE, clone XMG1.2, Biolegend, Cat. No.
Cat. No. 103138), CD4 (APC/Cy7, clone E-AB-F1353UJ, Elabscience, Cat. No.
AF18028), CD8α (PerCP/Cy5.5, clone E-AB-F1104UJ, Elabscience, Cat. No. […]
clone E-AB-F1187UH, Elabscience, Cat. No. AF19854), TNF-α (BV421, clone MP6-XT22, Biolegend, Cat. No. 506328), FOXP3 (PE, clone FJK-16s, eBioscience, Cat. No.
Perforin (APC, clone S16009A, Biolegend, Cat. No. 154303) and Granzyme B (APC, […]
clone QA16A02, Biolegend, Cat. No. 372203). […]
Figure S1. EpA enhances immune responses. […]
Representative flow-cytometric plots showing transferred CD45.1⁺ OT-II Th9 cells in spleens (C), tumor-draining lymph nodes (LNs) (D), and tumors (E); frequencies Figure S1 and absolute numbers of CD45.1⁺ OT-II Th9 cells in LNs are quantified in (D). (F– […]
Statistical analysis was performed using two-way ANOVA with Tukey’s post hoc test (A), one-way ANOVA with Tukey’s post hoc test (B) or two-tailed unpaired Student’s t-test (D and G–M). ns, not significant. *p < 0.05, **p < 0.01, ****p < 0.0001.
(also on this page, place not known: Mouse weight (g) CtrlEpA CtrlEpA CtrlEpA0 I CD45.1+ T cells (%) CtrlEpA CD4+ T cells (%) CtrlEpA CtrlEpA CtrlEpA FSC CD8 CD8 FSC FSC FSC BNumber of CD45.1+ T cells (×103 per mgĎ Number of CD4+ T cells (×104 per mgĎ DC (%)NK cells (%) NK cells (%) DC (%) Number of DC (×103 per mg) Number of NK cells (×105) Number of NK cells (×103 per mg) Number of DC (×105) FSC FSC FSC CD8 CtrlEpA CtrlEpA CtrlEpA CD8+ T cells (%) Number of CD8+ T cells (×104 per mgĎ nsns ns nsns ns 40 IL-6 (pg/ml)) […]

[1] = spleens, individual mice, n = 4

anteiso-C15 Leu7 surfactin [EpA]
Frequencies of transferred CD45.1⁺ OT-II Th9 cells among CD45⁺ cells in LN (LN, replicate 1): 25.5%
Frequencies of transferred CD45.1⁺ OT-II Th9 cells among CD45⁺ cells in LN (LN, replicate 2): 16.2%
Frequencies of transferred CD45.1⁺ OT-II Th9 cells among CD45⁺ cells in LN (LN, replicate 3): 15.5%
Frequencies of transferred CD45.1⁺ OT-II Th9 cells among CD45⁺ cells in LN (LN, replicate 4): 16.6%
number of transferred CD45.1⁺ OT-II Th9 cells among CD45⁺ cells in LN (LN, replicate 1): 12444.4
number of transferred CD45.1⁺ OT-II Th9 cells among CD45⁺ cells in LN (LN, replicate 2): 12569.8
number of transferred CD45.1⁺ OT-II Th9 cells among CD45⁺ cells in LN (LN, replicate 3): 11818.2
number of transferred CD45.1⁺ OT-II Th9 cells among CD45⁺ cells in LN (LN, replicate 4): 11251.4
CD45.1+ gate number (LN, Figure S1D): 15.5%
CD45.1+ gate number (Spleen, Figure S1C): 11.7%
CD45.1+ gate number (Tumor, Figure S1E): 6.7%
expansion of transferred cells (lymph nodes, result in words): moderately in the lymph nodes
expansion of transferred cells (spleen, result in words): expanded robustly in the spleen
Total CD45.1(%) among CD45+ cells [1]: 11.1% and 9.13% and 7.88% and 11.8%
number of CD45.1+ T cells [1]: 854404 and 834158 and 848241 and 1565169
CD45.1 (%) among CD4+ cells (tumors, individual mice, n = 4): 6.68% and 1.49% and 0.81% and 0.8%
number of CD45.1+ OT-II Th9 cells (tumors, individual mice, n = 4): 16 and 22 and 24 and 15
absolute number of transferred cells (tumors, result in words): markedly increased
frequency of transferred cells (tumors, result in words): remained comparable
